Experiment [1] deals with citrated normal human plasma. The experiment is described as follows: FVIIa/TF-initiated plasma clotting assay. The conditions noted are these: ratio of clotting time with/without compound; final compound concentration 0.33 mM; thromboplastin (Innovin). Here is the method: The test compounds, 20 mM in DMSO, are diluted in citrated normal human plasma just before the analysis (1+19) and placed in the sample carousel. 55 μl sample (compound in plasma) is mixed with 55 μl of thromboplastin (Innovin, Dade) and incubated for 5 min. The clotting reaction is started by adding 55 μl of a 25-mM CaCl2 solution, yielding a final compound concentration of 0.33 mM. The clotting time is measured using an ACL 300 R coagulometer. The ratio between the clotting time in the presence and absence of test compound is used to quantify the anticoagulant efficiency.

Experiment [2] addresses FXa (Homo sapiens, UniProt P00742). Nature of the experiment: FXa amidolytic assay. The class given is biochemical. To be noted: 1 nM FXa, 1 mM S-2765; read-out: FX amidolytic IC50 FX. Here is the method: Compound solutions and buffer are the same as in the above FX activation assay. 170 microliters of FXa (1.17 nM in buffer), 10 microliters of test compound (various concentrations in DMSO) and 20 microliters of substrate S-2765 (10 mM in water) is mixed in a microtiter plate well. This gives-final concentrations of FXa and S-2765 of 1 nM and 1 mM, respectively. The absorbance at 405 nm is measured continuously for 20 minutes. The degree of inhibition is calculated from the slope of the absorbance curve compared to the curve obtained when using DMSO without test compound.
Compound solutions and buffer are the same as in the above FX activation assay. 170 microliters of FXa (1.17 nM in buffer), 10 microliters of test compound (various concentrations in DMSO) and 20 microliters of substrate S-2765 (10 mM in water) is mixed in a microtiter plate well. This gives final concentrations of FXa and S-2765 of 1 nM and 1 mM, respectively. The absorbance at 405 nm is measured continuously for 20 minutes. The degree of inhibition is calculated from the slope of the absorbance curve compared to the curve obtained when using DMSO without test compound.

Experiment [3] has as its target T1, FVIIa/TF-catalyzed activation of FX (Homo sapiens, UniProt P08709).
T1 construct: Single-chain FVII may be converted to two-chain FVIIa by factor Xa
The experiment is described as follows: FX activation assay (FVIIa/TF-catalyzed FX activation). The class given is biochemical.

The target of experiment [4] is T2, TF/FVIIa (Homo sapiens, UniProt P08709).
T2 construct: Single-chain FVII may be converted to two-chain FVIIa by factor Xa; 20 microliters of soluble TF (250 nM in buffer)
T2 sequence (P08709 61-212 limits assumed): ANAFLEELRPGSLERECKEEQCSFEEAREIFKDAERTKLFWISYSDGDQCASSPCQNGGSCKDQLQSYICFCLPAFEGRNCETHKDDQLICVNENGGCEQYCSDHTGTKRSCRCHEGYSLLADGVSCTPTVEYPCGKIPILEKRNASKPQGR
T2 sequence (P08709 213-466 limits assumed): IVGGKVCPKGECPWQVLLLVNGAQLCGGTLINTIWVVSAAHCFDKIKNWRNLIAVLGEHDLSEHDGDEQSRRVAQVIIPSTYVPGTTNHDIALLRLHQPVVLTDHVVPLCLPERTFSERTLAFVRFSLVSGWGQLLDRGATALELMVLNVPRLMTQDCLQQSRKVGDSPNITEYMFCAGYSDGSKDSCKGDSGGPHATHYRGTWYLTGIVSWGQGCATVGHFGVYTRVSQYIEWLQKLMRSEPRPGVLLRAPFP
Nature of the experiment: FVIIa/TF amidolytic assay. Type of experiment: biochemical. To be noted: 10 nM FVIIa, 25 nM soluble TF, 1 mM S-2288. Here is the method: (§1) Compound solutions and buffer are the same as in the above FX activation assay. 150 microliters of FVIIa (13.3 nM in buffer), 20 microliters of soluble TF. (250 nM in buffer), 10 microliters of test compound (various concentrations in DMSO) and 20 microliters of substrate S-2288 (10 mM in water) is mixed in microtiter plate well. This gives final concentrations of FVII(a, TF and S-2288 of 10 nM, 25 nM and 1 mM, respectively. The absorbance at 405 nm is measured continuously for 20 minutes. The degree of inhibition is calculated from the slope of the absorbance curve compared to the curve obtained when using DMSO without test compound.
as §1, with “TF” for “TF.”, “DM80)” for “DMSO)”, “FVIIa,” for “FVII(a,”

Experiment [5] concerns the target T3, FVIIa/TF-catalyzed activation of FX (Homo sapiens, UniProt P08709+P13726).
T3 construct: Single-chain FVII may be converted to two-chain FVIIa by factor Xa
Nature of the experiment: FX activation assay (FVIIa/TF-catalyzed FX activation). The conditions noted are these: second part of table, Examples 14-22. Type of experiment: biochemical.

Where [6] appears, read: 100 pM FVIIa, 5 pM TF, 175 nM FX, FXa read with S-2765, read-out: TF/FVII/FX (FX activation) IC50 FXa.
The mark [7] stands for this setting: second part of table, Examples 14-22, read-out: IC50 (μM) FX activation by FVIIa/TF.

Where two headings read alike, the source gives them in different places. Some results are limits rather than exact numbers.

Sequence of FXa (P00742 41-179 limits assumed): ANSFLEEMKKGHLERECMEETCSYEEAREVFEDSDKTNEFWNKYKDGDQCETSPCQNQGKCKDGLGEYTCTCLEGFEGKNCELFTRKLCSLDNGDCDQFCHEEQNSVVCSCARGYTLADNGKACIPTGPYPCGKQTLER
Sequence of FXa (P00742 235-488 limits assumed): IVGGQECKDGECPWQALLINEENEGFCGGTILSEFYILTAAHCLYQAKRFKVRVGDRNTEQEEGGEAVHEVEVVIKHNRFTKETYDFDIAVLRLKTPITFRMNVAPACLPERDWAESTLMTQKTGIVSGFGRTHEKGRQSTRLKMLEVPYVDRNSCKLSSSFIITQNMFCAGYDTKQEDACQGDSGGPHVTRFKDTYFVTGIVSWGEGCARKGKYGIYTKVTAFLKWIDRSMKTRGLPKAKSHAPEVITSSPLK
T1 sequence (P13726 33-295, one chain of several, further chain): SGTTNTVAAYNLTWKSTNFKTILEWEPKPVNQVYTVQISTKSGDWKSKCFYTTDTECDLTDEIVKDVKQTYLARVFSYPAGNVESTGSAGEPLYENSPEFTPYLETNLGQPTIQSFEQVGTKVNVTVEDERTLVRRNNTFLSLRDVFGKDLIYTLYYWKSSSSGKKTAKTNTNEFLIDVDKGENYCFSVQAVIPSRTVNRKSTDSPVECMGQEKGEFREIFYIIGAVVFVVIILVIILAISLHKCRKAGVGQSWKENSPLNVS
T3 sequence (P13726 33-295, one chain of several): as the sequence (P13726 33-295, one chain of several, further chain) above

Consider `N=c1n(CCN2CCCC2)c2ccccc2n1CC(O)COc1ccc(Cl)cc1` (stereo not drawn) [Example 5, 1-(4-Chloro-phenoxy)-3-[2-imino-3-(2-pyrrolidin-1-yl-ethyl)-2,3-dihydro-benzoimidazol-1-yl]-propan-2-ol], for which the Clot ratio in experiment [1] is listed as above 3. For the same compound, the IC50 in experiment [2] is above 200 µM; in experiment [3] (setting [6]), 18 µM; in experiment [4], above 200 µM.
Regarding `CN(C)CCNCC(O)CN1CCn2c3c(c4cc(C5CCCCC5)ccc42)CCCC31` (stereo not drawn) [Example 6, 1-(8-Cyclohexyl-1,2,3a,4,5,6-hexahydro-pyrazino[3,2,1-jk]carbazol-3-yl)-3-(2-dimethylamino-ethylamino)-propan-2-ol], in experiment [1], the Clot ratio is given as above 3. Besides, the IC50 is above 200 µM in experiment [2], 17 µM in experiment [3] (setting [6]) and above 200 µM in experiment [4].
Consider `COc1cccc(/C=N\Nc2nc(Nc3ccccc3)nc(Nc3ccc(C)cc3C)n2)c1O` [Example 7, 2-{[4-(2,4-Dimethyl-phenylamino)-6-phenylamino-[1,3,5]triazin-2-yl]-hydrazonomethyl}-6-methoxy-phenol], for which the Clot ratio in experiment [1] came out at 1.03. In addition, the IC50 in experiment [2] was above 200 µM; in experiment [3] (setting [6]), 17 µM; in experiment [4], above 200 µM.
As for `CN1CCN(CC(=O)N2CCn3c4c(c5cc(C6CCCCC6)ccc53)CCCC42)CC1` (stereo not drawn) [Example 8, 1-(8-Cyclohexyl-1,2,3a,4,5,6-hexahydro-pyrazino[3,2,1-jk]carbazol-3-yl)-2-(4-methyl-piperazin-1-yl)-ethanone], the Clot ratio in experiment [1] turned out to be 2.72. The IC50 in experiment [2] was above 200 µM; in experiment [3] (setting [6]) it was 14 µM; in experiment [4], above 200 µM.
As to `CC(C)Cc1ccc(C(C)CNC(=N)C(C)c2ccc(CC(C)C)cc2)cc1` (stereo not drawn) [Example 9, 2-(4-Isobutyl-phenyl)-N-[2-(4-isobutyl-phenyl)-propyl]-propionamidine], in experiment [1], the Clot ratio was above 3. The IC50 in experiment [2] is above 200 µM; in experiment [3] (setting [6]), 11 µM; in experiment [4], above 200 µM.
For the compound `CCCCCCCCCCCCCCCCn1c2c(c(=N)c3c1CCC3)CCC2` [Example 10, 4-Hexadecyl-2,3,4,5,6,7-hexahydro-1H-4-aza-s-indacen-8-ylideneamine], in experiment [1], the Clot ratio is on record as 2.84. In addition, the IC50 in experiment [2] is above 200 µM; in experiment [3] (setting [6]), 7.7 µM; in experiment [4], above 200 µM.
On to `CCC(=C(c1ccc(OC)cc1)c1ccc(OC)cc1)c1cn(CC(O)CN2CCCC2)c2ccccc12` (stereo not drawn) [Example 11, 1-{3-[1-Ethyl-2,2-bis-(4-methoxy-phenyl)-vinyl]-indol-1-yl}-3-pyrrolidin-1-yl-propan-2-ol], for which the Clot ratio in experiment [1] came to 1.64. Also, the results for the IC50 in experiment [2], in experiment [3] (setting [6]) and in experiment [4] were above 200 µM, 7.7 µM and above 200 µM, respectively.
Regarding `COc1ccc(/C=C2\c3ccccc3-c3ccc(C(=O)CCCCN4CCCCC4)cc32)cc1OC` [Example 12, 1-[9-(3,4-Dimethoxy-benzylidene)-9H-fluoren-2-yl]-5-piperidin-1-yl-pentan-1-one], in experiment [1], the Clot ratio is recorded as 1.2. In addition, the figures for the IC50 in experiment [2], in experiment [3] (setting [6]) and in experiment [4] were above 200 µM, 7 µM and above 200 µM, respectively.
For the compound `CCCCCCCOc1ccc(/C(=N\C2CC(C)(C)NC(C)(C)C2)c2ccccc2)cc1` [Example 13, [(4-Heptyloxy-phenyl)-phenyl-methylene]-(2,2,6,6-tetramethylpiperidin-4-yl)-amine], the Clot ratio in experiment [1] worked out at 2.06. Moreover, the IC50 in experiment [2] was above 200 µM; in experiment [3] (setting [6]), 5.8 µM; in experiment [4], above 200 µM.
Take `CCN(CC)CCCC(C)Nc1nc(/C=C/C=C/c2ccccc2)nc2cc(Cl)ccc12` (stereo not drawn) [Example 14, N-[7-chloro-2-(4-phenyl-buta-1,3-dienyl)-quinazolin-4-yl]-5-N,N-diethyl-aminopentane-2-amine]: the IC50 in experiment [3] (setting [7]) is below 20 µM.
For `CCN(CC)CCCC(C)Nc1nc(C=Cc2ccc(Br)cc2Br)nc2cc(Cl)ccc12` (stereo not drawn) [Example 15, N4-{7-chloro-2-[2-(2,4-dibromo-phenyl)-vinyl]-quinazolin-4-yl}-N1,N1-diethyl-pentane-1,4-diamine], the IC50 in experiment [3] (setting [7]) was below 20 µM.
With `CCN(CC)CCCC(C)Nc1nc(/C=C/c2ccc(Br)cc2)nc2cc(Cl)ccc12` (stereo not drawn) [Example 16, N4-{2-[2-(4-bromo-phenyl)-vinyl]-7-chloro-quinazolin-4-yl}-N1,N1-diethyl-pentane-1,4-diamine], the IC50 in experiment [3] (setting [7]) is below 20 µM.
Same read-out and setting: under `CN(C)CCCN(C)Cc1cn(Cc2ccc(Cl)c(Cl)c2)c2cc(Cl)c(OCc3ccccc3)cc12` [Example 17, N-[5-benzyloxy-6-chloro-1-(3,4-dichlorobenzyl)-1H-indol-3-ylmethyl]-N,N′N′-trimethylpropan-1,3-diamine] stands below 20 µM; under `CN(C)C1CCN(Cc2c[nH]c3ccc(OCc4ccccc4)cc23)CC1` [Example 18, N-[5-benzyloxy-1H-indol-3-ylmethyl]-4-dimethylaminopiperidine], below 20 µM; under `NC(CC(=O)NC(Cc1c[nH]c2ccccc12)C(=O)O)(P(=O)(O)O)P(=O)(O)O` (stereo not drawn) [Example 19, 2-(3-amino-3,3-bis-phosphono-propionylamino)-3-(1H-indol-3-yl)-propionic acid], below 20 µM.
On the same count and under the same terms, under `CN(C)CCCNC(=O)c1cc2cc(OCc3ccccc3)ccc2n1Cc1ccc(Cl)c(Cl)c1` [Example 20] stands below 20 µM.
Turning to `CN(C)CCc1cn(Cc2ccc(Cl)c(Cl)c2)c2cc(Cl)c(OCc3ccccc3)cc12` [Example 21, N,N-dimethyl-1-(3,4-dichlorobenzyl)-5-benzyloxy-6-chlorotrypamine], in experiment [5], the IC50 is below 20 µM.
In the case of `CCC(=C(c1ccc(OC)cc1)c1ccc(OC)cc1)c1cn(CC(O)CN2CCCC2)c2ccccc12` (stereo not drawn) [Example 22, 1-{3-[1-ethyl-2,2-bis-(4-methoxy-phenyl)-vinyl]-indol-1-yl}-3-pyrrolidin-1-yl-propan-2-ol], the IC50 in experiment [3] (setting [7]) was below 20 µM.

(Values after patent US6444434B1, “FVIIa/TF activity inhibiting compounds” (Novo Nordisk A/S, priority 1999, dated 2002).)
